Measurements: patent US9795587B2, “Compounds for enhancing hypoxia inducible factor activity and methods of use” (Cornell Research Foundation, Inc., priority 2005, dated 2017)

Assays:
[1] = test system: hypoxia response element regulated reporter gene; test: Hypoxia response element (enolase promoter) luciferase reporter in cortical neurons; type: cell-based, rat; conditions: 40 μM, positive control, FIG. 5
Procedure: FIG. 5. A cell permeant, peptide inhibitor of the HIF prolyl 4-hydroxylase, but not a mutant control, induces expression of HIF-dependent genes. […] The low molecular weight P4H inhibitor, FG-0041 (40 μM) was used as a positive control. To determine whether the Tat-HIF/ODD/wt peptide stabilizes HIF-1 leading to activation of HIF-1 dependent gene expression, the levels of a luciferase reporter gene that is regulated by a hypoxia response element found in the enolase gene promoter was monitored.

[2] = test system: HIF-1 target genes; test: Expression of HIF-1 target genes in rat cerebral cortex (real time RT-PCR); type: in vivo; conditions: 100 mg/kg i.p., Sprague Dawley rats, FIG. 4
Procedure: HIF-1α protein levels were determined in nuclear extracts using a monoclonal anti-HIF-1α antibody (NOVUS Biologicals). Real time RT-PCR was performed in a ABI-7500 instruments using commercial Taqman gene expression assays (Applied BioSystems). Male Sprague Dawley rats, weighing 275-350 gm, were used in these experiments. For surgical procedures, anesthesia was induced with 5% isofluorane delivered in oxygen and maintained at 1.5% throughout surgery. Core body temperature was maintained at 37° C. by a homeothermic heating blanket. Animals were subjected to MCAo by the intraluminal filament method. The right external carotid artery was ligated, cauterized, and cut, and its branches were coagulated. A 35 mm length of 4-0 nylon monofilament (Ethicon) with a rounded tip was then inserted into the internal carotid artery via the proximal end of the external carotid artery stump. The filament was advanced 20 mm beyond the carotid artery bifurcation with slight resistance was encountered. The tilorone analogues R-10,874-DA, R-11,567-DA, and R-9536-DA were injected 100 mg/kg i.p. 24 h pre-MCAo. Equivalent volume of saline was injected i.p. to control rats. Animals were sacrificed 24 h post-MCAo.

[3] = test system: HIF-1; test: HIF-luciferase reporter (enolase 1 promoter-luciferase) in stably transfected HT22 cells; type: cell-based; conditions: HT22 murine hippocampal cells, FIG. 3
Procedure: HT22 murine hippocampal cells were stably transfected with an enolase 1 promoter-luciferase reporter construct and selected with puromycin. Tilorone analogues R-10,874-DA, R-11,567-DA, and R-9536-DA were tested for their ability to activate a HIF-luciferase reporter. Luciferase activity was measured using a Luciferase Assay System (PROMEGA) according to the manufacture's protocol.

Structure (SMILES)	induction of the HIF-dependent reporter gene [1]	expression of HIF-1 target genes in the rat cerebral cortex [2]	HIF-1 transcriptional activity (HIF-luciferase reporter) [3]
O=C(O)c1c[nH]c2c(ccc3cccnc32)c1=O [FG-0041]	stimulated		
CN(C)CC(=O)c1ccc2oc3ccc(C(=O)CN(C)C)cc3c2c1.Cl.Cl.O [R-11,567-DA, 2,8-bis[dimethylaminoacetyl]dibenzofurin dihydrochloride hydrate]		induce the expression of HIF-1 target genes	increase HIF-1 transcriptional activity
CN(C)CCOc1ccc2c(=O)c3ccc(OCCN(C)C)cc3oc2c1.Cl.Cl [R-10,874-DA, 3,6-bis[2-(dimethylamino)ethoxy]-9h-xanthen-9-one dihydrochloride]		induce the expression of HIF-1 target genes	increase HIF-1 transcriptional activity
